Entries after “also recorded” stand apart in the source; their conditions may differ. Like-named read-outs stand apart in the source and are kept apart here.
Tests used:
skin of Guinea Pig [1] = settings: TABLE I, cited from earlier work
[2] = system: wound made by loss of substance; test: Cicatrizing activity in the rat (area of wound); type: in vivo
Excerpt: Cicatrizing activity of CB 619 in the rat
The experiment was to calculate the area of the wound made by loss of substance.

skin = settings: rabbit, in vivo
Excerpt: Skin irritation index of CB 619 in the Rabbit
The experiment was made according to the French "Arrete Ministeriel" of the 21th of February 1982 which specifies the official method for the determination Of the skin primary irritation index (SPI).
The official method for the determination of the index of primary cutaneous irritation is described in detail in Annex 1.
The present method is utilized so as to determine the index of primary cutaneous irritation for a cosmetic or bodily hygiene product.
This method is based on the observation of cutaneous reactions provoked through the sole application of the principle.
4.1. Male albino rabbits of defined breed, weighing around 2.5 kg. So as to be perfectly acclimated, the animals must be kept in individual cages for one week prior to the experiment, and; must receive food of invariably balanced composition.
5.1.1. The day before application of the product, shear the back and flanks of the rabbits (4.1) with shears (4.3) so as to clear a surface of about 14 cm×14 cm; proceed with care in order to avoid all irritation. Verify skin condition so as to retain but six animals presenting healthy and clean-shaved skin.
5.1.2. […]
Primary cutaneous irritation must be evaluated around thirty minutes subsequent to removal of the dressing; a second evaluation is to take place 48 hours later, i.e. 72 hours after application of the product. […]

pH of aqueous solution = type: physicochemical; settings: 6% solution in water
skin of Guinea Pig [3] = settings: in vivo
Pityrosporum ovale 1363 [4] = test: Antifungic test, discs method (inhibition diameter); type: cell-based; settings: 72 hours at 37° C.
Procedure: (§1) CB 619 was tested against Pityrosporum orbiculare 1219 and Pityrosporum ovale 1363, both from the Pasteur Institute, in the Dixon's culture medium, modified by Randjandiche according to the following composition:
(§2) 30 ml of culture medium were cast in each Petri dish of 90 mm of diameter.
(§3) The inoculum was a 2 ml suspension of Pityrosporum containing 10,000,000 germs, 72 hours old, per ml.
(§4) After drying at 37° C., tests were carried out according to discs method or to cylinders method.
(§5) According to the discs method, discs of 6 mm of Antibiotica-Testblattchen Schleider & Schull, reference 2668/2, are soaked in test solution, then set down onto the seeded medium.
(§6) According to both methods, the inhibition areas were measured after a time of incubation of 72 hours at 37° C.
(§7) According to the discs method, Intrinsic Inhibition Power of CB 619 is, the inhibition diameter being given in mm: […]

[5] = system: Pityrosporum orbiculare 1219; test: as above; type: cell-based; settings: 72 hours at 37° C.
Procedure: as §1, §2, §3, §4, §5, §6, §7

[6] = system: lipidic synthesis of the sebaceous gland; test: In vitro antiseborrheic properties (14C-acetate incorporation, prepucial gland of the rat); type: cell-based
Procedure: In vitro antiseborrheic properties of CB 619
According to the experiment, the lipidic metabolic activity of the prepucial gland of the rat was evaluated. The lipidic synthesis of the sebaceous gland was evaluated by adding, as marked precursor, sodium ^14 C-acetate.
CB 619 was tested in comparison with carboxymethylcysteine (CMC) as a reference.

Pityrosporum ovale 1363 [7] = test: Antifungic test, cylinders method (inhibition diameter); type: cell-based; settings: 72 hours at 37° C.
Procedure: (§8) CB 619 was tested against Pityrosporum orbiculare 1219 and Pityrosporum ovale 1363, both from the Pasteur Institute, in the Dixon's culture medium, modified by Randjandiche according to the following composition: 30 ml of culture medium were cast in each Petri dish of 90 mm of diameter. The inoculum was a 2 ml suspension of Pityrosporum containing 10,000,000 germs, 72 hours old, per ml. After drying at 37° C., tests were carried out according to discs method or to cylinders method. According to cylinders method, cylinders of 4 mm of diameter were excavated in gelose with a stainless steel tool, and 75 microliters of the solution of the tested product were introduced into each cylinder. According to both methods, the inhibition areas were measured after a time of incubation of 72 hours at 37° C. According to cylinders method, Intrinsic Inhibition Power of CB 619 is, the inhibition diameter being given in mm: […]

[8] = system: Pityrosporum orbiculare 1219; test: as above; type: cell-based; settings: 72 hours at 37° C.
Procedure: as §8

Mouse = test: Acute toxicity in the Mouse (LD 50); type: in vivo; settings: for LD 50: male and female mice, 14 days, Miller and Tainter method
Procedure: Acute toxicity of CB 619 in the Mouse
The lethal dosis 50% (LD 50) of CB 619 were evaluated when dissolved in bidistilled water and administered by 0.2 to 0.3 ml/kg volumes, monitoring the effect during 14 days.

eye = settings: rabbit, in vivo
cicatrization of wounds = settings: normal animal, without zinc deficiency; Favier et al. 1980; cited from earlier work

## CCOC(=O)c1ccc(N)cc1 [Benzocaine]
Skin of Guinea Pig [1]; reading 24
  Class. (degree of allergenicity): II (9-28)
  Number of animals with Note 0: 17
  Number of animals with Note 1: 3
  Number of animals with Note 2: 0
  Number of animals with Note 3: 0
  Percentage of animals having presented a reaction: 15%
Skin of Guinea Pig [1]; reading 48
  Class. (degree of allergenicity): II (9-28)
  Number of animals with Note 0: 17
  Number of animals with Note 1: 3
  Number of animals with Note 2: 0
  Number of animals with Note 3: 0
  Percentage of animals having presented a reaction: 15%

## N[C@@H](CS(=O)(=O)O)C(=O)[O-].N[C@@H](CS(=O)(=O)O)C(=O)[O-].O.O.[Zn+2] [CB 619, dihydrate of the zinc salt of L-cysteic acid]
[2]; 3% in a 2% carbopol gel
  Cicatrization: enhances cicatrization
[2]; 10% in a 2% carbopol gel
  Cicatrization: no more active
other
  Solubility in water: ~6 weight-percent by volume
skin
  Skin irritation classification: non-irritant
  Skin primary irritation index (SPI): 0.1666
Human fibroblast cells; 1 and 5 microgram/ml
  Cell multiplication: increases the 5 cell multiplication in accordance with the concentration
Human fibroblast cells; 1 microgram/ml
  Significance of increase in cell multiplication (days): significant on the sixth day
Human fibroblast cells; 5 microgram/ml
  Significance of increase in cell multiplication (days): on the fourth, sixth and eighth days
pH of aqueous solution
  pH of a 6% solution: about 6.30
Skin of Guinea Pig [3]
  Allergenicity (sensibilization): no allergenic properties
Pityrosporum ovale 1363 [4]; 1 mg
  Intrinsic Inhibition Power, inhibition diameter: 6 mm
Pityrosporum ovale 1363 [4]; 2 mg
  Intrinsic Inhibition Power, inhibition diameter: 7 mm
Pityrosporum ovale 1363 [4]; 3 mg
  Intrinsic Inhibition Power, inhibition diameter: 9 mm
Pityrosporum ovale 1363 [4]; 4 mg
  Intrinsic Inhibition Power, inhibition diameter: 11 mm
Pityrosporum ovale 1363 [4]; 5 mg
  Intrinsic Inhibition Power, inhibition diameter: 13 mm
[5]; 1 mg
  Intrinsic Inhibition Power, inhibition diameter: 6 mm
[5]; 2 mg
  Intrinsic Inhibition Power, inhibition diameter: 7 mm
[5]; 3 mg
  Intrinsic Inhibition Power, inhibition diameter: 9 mm
[5]; 4 mg
  Intrinsic Inhibition Power, inhibition diameter: 11 mm
[5]; 5 mg
  Intrinsic Inhibition Power, inhibition diameter: 13 mm
[6]; 10^-3 M
  Inhibition of the lipidic synthesis: 41.8%
[6]; 10^-3 M, CB 619 versus CMC
  Antiseborrheic activity compared with carboxymethylcysteine: the more active
[6]; 10^-4 M
  Inhibition of the lipidic synthesis: 33.7%
Pityrosporum ovale 1363 [7]; concentration of 2%
  Intrinsic Inhibition Power, inhibition diameter: 10 mm
Pityrosporum ovale 1363 [7]; saturated solution
  Intrinsic Inhibition Power, inhibition diameter: 11 mm
[8]; concentration of 2%
  Intrinsic Inhibition Power, inhibition diameter: 10 mm
[8]; saturated solution
  Intrinsic Inhibition Power, inhibition diameter: 11 mm
Mouse; intraperitoneally
  LD 50: 100 ± 13 mg/kg
Mouse; mouse, toxic dosis
  Signs at the toxic dosis: animals become isolated in their cage; also recorded: Their hair stands up and they move with difficulty; also recorded: No diarrhea was observed
Mouse; orally
  LD 50: 1650 ± 60 mg/kg
eye
  Eye irritation (E.I.): under 2
  Eye irritation classification: very weakly irritant
  Maximum eye irritation: 5.83

## Nc1ccc(N)cc1 [Diamine paraphenylene]
Skin of Guinea Pig [1]; reading 24
  Class. (degree of allergenicity): V (81-100)
  Number of animals with Note 0: 3
  Number of animals with Note 1: 13
  Number of animals with Note 2: 4
  Number of animals with Note 3: 0
  Percentage of animals having presented a reaction: 85%
Skin of Guinea Pig [1]; reading 48
  Class. (degree of allergenicity): IV (65-80)
  Number of animals with Note 0: 4
  Number of animals with Note 1: 12
  Number of animals with Note 2: 4
  Number of animals with Note 3: 0
  Percentage of animals having presented a reaction: 80%

## CCN(CC)CCNC(=O)c1ccc(N)cc1 [Procainamide]
Skin of Guinea Pig [1]; reading 24
  Number of animals with Note 0: 6
  Number of animals with Note 1: 5
  Number of animals with Note 2: 9
  Number of animals with Note 3: 0
  Percentage of animals having presented a reaction: 70%
Skin of Guinea Pig [1]; reading 48
  Number of animals with Note 0: 6
  Number of animals with Note 1: 5
  Number of animals with Note 2: 9
  Number of animals with Note 3: 0
  Percentage of animals having presented a reaction: 70%

## OCC(O)CS (stereo not shown) [Thioglycerol]
Skin of Guinea Pig [1]; reading 24
  Class. (degree of allergenicity): III (29-64)
  Number of animals with Note 0: 7
  Number of animals with Note 1: 9
  Number of animals with Note 2: 3
  Number of animals with Note 3: 0
  Percentage of animals having presented a reaction: 63%
Skin of Guinea Pig [1]; reading 48
  Class. (degree of allergenicity): III (29-64)
  Number of animals with Note 0: 11
  Number of animals with Note 1: 8
  Number of animals with Note 2: 0
  Number of animals with Note 3: 0
  Percentage of animals having presented a reaction: 45%

## [Zn] [zinc]
Cicatrization of wounds
  Cicatrization: does not accelerate the cicatrization

## carboxymethylcysteine [CMC]
[6]; 10^-3 M
  Inhibition of the lipidic synthesis: 24.5%
[6]; 10^-4 M
  Inhibition of the lipidic synthesis: 5.9%

— patent publication US5661177A, “Zinc cysteate its preparation and uses in pharmacy and cosmetology” (Chimie et Biologie, priority 1988, dated 1997)
